From patent publication US20170260178A1 (SPERO GYRASE, INC., priority 2012, published 2017)
Read-outs that look alike come from different tables or passages of the source.

Legend:
S. pneumoniae ATCC6301 = assay: Mouse survival model (lung infection); assay type: in vivo; conditions: CD-1 mice
Procedure: Anaesthetised female CD-1 mice (18-22 g) were inoculated intranasally with approximately 10^6 cfus of S. pneumoniae ATCC6301 prepared from a fresh overnight culture by placing 50 μl of inoculum on the nares and allowing the mice to inhale. Compounds are administered as indicated at 24, 48 and 72 hours post inoculation and the mice monitored for survival for seven or nine days after infection. […] Similarly, when Compound 17 was dosed IV at 30 mg/kg 90% of mice survived at day seven.

S. pyogenes (ATCC 51339) = assay: Bacterial assay: MIC against S. pyogenes; assay type: cell-based, Streptococcus pyogenes; conditions: Streptococcus pyogenes, ATCC51339, read-out: minimal inhibitory concentration (MIC)
S. aureus (ATCC 29213) = assay: Bacterial assay: MIC against S. aureus; assay type: cell-based, Staphylococcus aureus; conditions: Staphylococcus aureus, ATCC29213, read-out: minimal inhibitory concentration (MIC)
[1] = system: H. influenzae (ATCC 49247); assay: Bacterial assay: MIC against H. influenzae; assay type: cell-based; conditions: Haemophilus influenzae
[2] = ATCC49247, H. influenzae ATCC 49247, read-out: minimal inhibitory concentration (MIC)

## CCNC(=O)Nc1nc2cc(-c3cnc(C(C)O)nc3)cc(-c3ccccn3)c2s1 (centres unmarked) [Compound 17, 1-ethyl-3-[5-[2-(1-hydroxyethyl)pyrimidin-5-yl]-7-(2-pyridyl)-1,3-benzothiazol-2-yl]urea]
S. pneumoniae ATCC6301; IV 30 mg/kg, at day seven
  mice survived: 90%
S. pyogenes (ATCC 51339)
  MIC: ≤ 1 µg/mL
S. aureus (ATCC 29213)
  MIC: ≤ 1 µg/mL
[1]; [2]
  MIC: ≤ 2 µg/mL

## CCNC(=O)Nc1nc2cc(-c3cnc([C@@H](O)[C@H](O)C(F)(F)F)nc3)cc(-c3ccccn3)c2s1 (relative stereo) [Compound 131, 1-ethyl-3-[7-(2-pyridyl)-5-[2-[(1R*,2S*)-3,3,3-trifluoro-1,2-dihydroxy-propyl]pyrimidin-5-yl]-1,3-benzothiazol-2-yl]urea]
S. pyogenes (ATCC 51339)
  MIC: ≤ 1 µg/mL
S. aureus (ATCC 29213)
  MIC: ≤ 1 µg/mL
[1]; [2]
  MIC: ≤ 2 µg/mL

## CCNC(=O)Nc1nc2cc(-c3cnc(C4(O)CCSCC4)nc3)cc(-c3ccccn3)c2s1 [Compound 127, 1-ethyl-3-[5-[2-(4-hydroxytetrahydrothiopyran-4-yl)pyrimidin-5-yl]-7-(2-pyridyl)-1,3-benzothiazol-2-yl]urea]
S. pyogenes (ATCC 51339)
  MIC: ≤ 1 µg/mL
S. aureus (ATCC 29213)
  MIC: ≤ 1 µg/mL
[1]; [2]
  MIC: ≤ 2 µg/mL

## CCNC(=O)Nc1nc2cc(-c3cnc(C(C)O)nc3)cc(-c3cc(CP(=O)(OCC)OCC)ccn3)c2s1 (centres unmarked) [Compound 100, 1-[7-[4-(diethoxyphosphorylmethyl)-2-pyridyl]-5-[2-(1-hydroxyethyl)pyrimidin-5-yl]-1,3-benzothiazol-2-yl]-3-ethyl-urea]
S. pyogenes (ATCC 51339)
  MIC: ≤ 1 µg/mL
S. aureus (ATCC 29213)
  MIC: ≤ 1 µg/mL
[1]; ATCC49247, read-out: minimal inhibitory concentration (MIC)
  MIC: ≤ 2 µg/mL

## CCNC(=O)Nc1nc2cc(-c3cnc(C4(O)COC4)nc3)cc(-c3ccccn3)c2s1 [Compound 113, 1-ethyl-3-[5-[2-(3-hydroxyoxetan-3-yl)pyrimidin-5-yl]-7-(2-pyridyl)-1,3-benzothiazol-2-yl]urea]
S. pyogenes (ATCC 51339)
  MIC: ≤ 1 µg/mL
S. aureus (ATCC 29213)
  MIC: ≤ 1 µg/mL
[1]; [2]
  MIC: ≤ 2 µg/mL

## CCNC(=O)Nc1nc2cc(-c3cnc(C(C)O)nc3)cc(-c3cc(CN4CC5(COC5)C4)ccn3)c2s1 (centres unmarked) [Compound 73, 1-ethyl-3-[5-[2-(1-hydroxyethyl)pyrimidin-5-yl]-7-[4-(6-oxa-2-azaspiro[3.3]heptan-2-ylmethyl)-2-pyridyl]-1,3-benzothiazol-2-yl]urea]
S. pyogenes (ATCC 51339)
  MIC: ≤ 1 µg/mL
S. aureus (ATCC 29213)
  MIC: ≤ 1 µg/mL
[1]; [2]
  MIC: ≤ 2 µg/mL

## CCNC(=O)Nc1nc2cc(-c3cnc(C(C)(C)O)nc3)cc(-c3cc(CN4CCSCC4)ccn3)c2s1 [Compound 187, 1-ethyl-3-[5-[2-(1-hydroxy-1-methyl-ethyl)pyrimidin-5-yl]-7-[4-(thiomorpholinomethyl)-2-pyridyl]-1,3-benzothiazol-2-yl]urea]
S. pyogenes (ATCC 51339)
  MIC: ≤ 1 µg/mL
S. aureus (ATCC 29213)
  MIC: ≤ 1 µg/mL
[1]; [2]
  MIC: ≤ 2 µg/mL

## CCNC(=O)Nc1nc2cc(-c3cnc([C@@H](O)[C@H](C)O)nc3)cc(-c3ccccn3)c2s1 (relative stereo) [Compound 7, 1-[5-[2-[(1S*,2R*)-1,2-dihydroxypropyl]pyrimidin-5-yl]-7-(2-pyridyl)-1,3-benzothiazol-2-yl]-3-ethyl-urea]
S. pyogenes (ATCC 51339)
  MIC: ≤ 1 µg/mL
S. aureus (ATCC 29213)
  MIC: ≤ 1 µg/mL
[1]; [2]
  MIC: ≤ 2 µg/mL

## CCNC(=O)Nc1nc2cc(-c3cnc([C@@]4(O)CCOC[C@H]4O)nc3)cc(-c3ccccn3)c2s1 (relative stereo) [Compound 8, 1-[5-[2-[(3R*,4S*)-3,4-dihydroxytetrahydropyran-4-yl]pyrimidin-5-yl]-7-(2-pyridyl)-1,3-benzothiazol-2-yl]-3-ethyl-urea]
S. pyogenes (ATCC 51339)
  MIC: ≤ 1 µg/mL
S. aureus (ATCC 29213)
  MIC: ≤ 1 µg/mL
[1]; [2]
  MIC: ≤ 2 µg/mL

## CCNC(=O)Nc1nc2cc(-c3ccc(C(O)C(F)(F)F)nc3)cc(-c3ccccn3)c2s1 (centres unmarked) [Compound 96, 1-ethyl-3-[7-(2-pyridyl)-5-[6-(2,2,2-trifluoro-1-hydroxy-ethyl)-3-pyridyl]-1,3-benzothiazol-2-yl]urea]
S. pyogenes (ATCC 51339)
  MIC: ≤ 1 µg/mL
S. aureus (ATCC 29213)
  MIC: ≤ 1 µg/mL
[1]; [2]
  MIC: ≤ 2 µg/mL

## CCNC(=O)Nc1nc2cc(-c3cnc(C(C)(C)O)nc3)cc(-c3cc(CN4CC(OC)C4)ccn3)c2s1 [Compound 31, 1-ethyl-3-[5-[2-(1-hydroxy-1-methyl-ethyl)pyrimidin-5-yl]-7-[4-[(3-methoxyazetidin-1-yl)methyl]-2-pyridyl]-1,3-benzothiazol-2-yl]urea]
S. pyogenes (ATCC 51339)
  MIC: ≤ 1 µg/mL
S. aureus (ATCC 29213)
  MIC: ≤ 1 µg/mL
[1]; [2]
  MIC: ≤ 2 µg/mL

## CCNC(=O)Nc1nc2cc(-c3cnc(C(O)CN4CCOCC4)nc3)cc(-c3ccccn3)c2s1 (centres unmarked) [Compound 81, 1-ethyl-3-[5-[2-(1-hydroxy-2-morpholino-ethyl)pyrimidin-5-yl]-7-(2-pyridyl)-1,3-benzothiazol-2-yl]urea]
S. pyogenes (ATCC 51339)
  MIC: ≤ 1 µg/mL
S. aureus (ATCC 29213)
  MIC: ≤ 1 µg/mL
[1]; [2]
  MIC: ≤ 2 µg/mL

## CCNC(=O)Nc1nc2cc(-c3cnc(C(C)O)nc3)cc(-c3ccc(C(C)O)cn3)c2s1 (centres unmarked) [Compound 168, 1-ethyl-3-[7-[5-(1-hydroxyethyl)-2-pyridyl]-5-[2-(1-hydroxyethyl)pyrimidin-5-yl]-1,3-benzothiazol-2-yl]urea]
S. pyogenes (ATCC 51339)
  MIC: ≤ 1 µg/mL
S. aureus (ATCC 29213)
  MIC: ≤ 1 µg/mL
[1]; [2]
  MIC: ≤ 2 µg/mL

## CCNC(=O)Nc1nc2cc(-c3cnc(C(C)O)nc3)cc(-c3cc(OCCOC)ccn3)c2s1 (centres unmarked) [Compound 92, 1-ethyl-3-[5-[2-(1-hydroxyethyl)pyrimidin-5-yl]-7-[4-(2-methoxyethoxy)-2-pyridyl]-1,3-benzothiazol-2-yl]urea]
S. pyogenes (ATCC 51339)
  MIC: ≤ 1 µg/mL
S. aureus (ATCC 29213)
  MIC: ≤ 1 µg/mL
[1]; [2]
  MIC: ≤ 2 µg/mL

## CCNC(=O)Nc1nc2cc(-c3cnc(N4CCC(C)(C(=O)O)CC4)nc3)cc(-c3cc(C(C)(C)O)ccn3)c2s1 [Compound 74, 1-[5-[2-(ethylcarbamoylamino)-7-[4-(1-hydroxy-1-methyl-ethyl)-2-pyridyl]-1,3-benzothiazol-5-yl]pyrimidin-2-yl]-4-methyl-piperidine-4-carboxylic acid]
S. pyogenes (ATCC 51339)
  MIC: ≤ 1 µg/mL
S. aureus (ATCC 29213)
  MIC: ≤ 1 µg/mL
[1]; [2]
  MIC: ≤ 2 µg/mL

## CCNC(=O)Nc1nc2cc(-c3cnc(C(C)O)nc3)cc(-c3cc(CN4CCOCC4C)ccn3)c2s1 (centres unmarked) [Compound 68, 1-ethyl-3-[5-[2-(1-hydroxyethyl)pyrimidin-5-yl]-7-[4-[(3-methylmorpholin-4-yl)methyl]-2-pyridyl]-1,3-benzothiazol-2-yl]urea]
S. pyogenes (ATCC 51339)
  MIC: ≤ 1 µg/mL
S. aureus (ATCC 29213)
  MIC: ≤ 1 µg/mL
[1]; [2]
  MIC: ≤ 2 µg/mL

## CCNC(=O)Nc1nc2cc(-c3cnc(C(C)(C)O)nc3)cc(-c3cc(OCCCN4CCOCC4)ccn3)c2s1 [Compound 38, 1-ethyl-3-[5-[2-(1-hydroxy-1-methyl-ethyl)pyrimidin-5-yl]-7-[4-(3-morpholinopropoxy)-2-pyridyl]-1,3-benzothiazol-2-yl]urea]
S. pyogenes (ATCC 51339)
  MIC: ≤ 1 µg/mL
S. aureus (ATCC 29213)
  MIC: ≤ 1 µg/mL
[1]; [2]
  MIC: ≤ 2 µg/mL

## CCNC(=O)Nc1nc2cc(-c3cnc(C(C)(C)O)nc3)cc(-c3ccc(OCCN4CCOCC4)cn3)c2s1 [Compound 56, 1-ethyl-3-[5-[2-(1-hydroxy-1-methyl-ethyl)pyrimidin-5-yl]-7-[5-(2-morpholinoethoxy)-2-pyridyl]-1,3-benzothiazol-2-yl]urea]
S. pyogenes (ATCC 51339)
  MIC: ≤ 1 µg/mL
S. aureus (ATCC 29213)
  MIC: ≤ 1 µg/mL
[1]; [2]
  MIC: ≤ 2 µg/mL

## CCNC(=O)Nc1nc2cc(-c3cnc(C(C)O)cn3)cc(-c3ccccn3)c2s1 (centres unmarked) [Compound 6, 1-ethyl-3-[5-[5-(1-hydroxyethyl)pyrazin-2-yl]-7-(2-pyridyl)-1,3-benzothiazol-2-yl]urea]
S. pyogenes (ATCC 51339)
  MIC: ≤ 1 µg/mL
S. aureus (ATCC 29213)
  MIC: ≤ 1 µg/mL
[1]; [2]
  MIC: ≤ 2 µg/mL

## CCNC(=O)Nc1nc2cc(-c3cnc([C@@H](C)O)nc3)cc(-c3ccccn3)c2s1 [Compound 22, 1-ethyl-3-[5-[2-[(1R)-1-hydroxyethyl]pyrimidin-5-yl]-7-(2-pyridyl)-1,3-benzothiazol-2-yl]urea]
S. pyogenes (ATCC 51339)
  MIC: ≤ 1 µg/mL
S. aureus (ATCC 29213)
  MIC: ≤ 1 µg/mL
[1]; [2]
  MIC: ≤ 2 µg/mL

## CCNC(=O)Nc1nc2cc(-c3cnc([C@@H](C)OC(=O)[C@H](N)C(C)C)nc3)cc(-c3ccccn3)c2s1 [Compound 62, [(1R)-1-[5-[2-(ethylcarbamoylamino)-7-(2-pyridyl)-1,3-benzothiazol-5-yl]pyrimidin-2-yl]ethyl] (2R)-2-amino-3-methyl-butanoate]
S. pyogenes (ATCC 51339)
  MIC: ≤ 1 µg/mL
S. aureus (ATCC 29213)
  MIC: ≤ 1 µg/mL
[1]; [2]
  MIC: ≤ 2 µg/mL

## CCNC(=O)Nc1nc2cc(-c3cnc(C(C)(C)O)nc3)cc(-c3cc(CN4CC[C@@H](F)C4)ccn3)c2s1 [Compound 36, 1-ethyl-3-[7-[4-[[(3R)-3-fluoropyrrolidin-1-yl]methyl]-2-pyridyl]-5-[2-(1-hydroxy-1-methyl-ethyl)pyrimidin-5-yl]-1,3-benzothiazol-2-yl]urea]
S. pyogenes (ATCC 51339)
  MIC: ≤ 1 µg/mL
S. aureus (ATCC 29213)
  MIC: ≤ 1 µg/mL
[1]; [2]
  MIC: ≤ 2 µg/mL

## CCNC(=O)Nc1nc2cc(-c3cnc(C(C)(C)O)nc3)cc(-c3cc(CN4CCOCC4)ccn3)c2s1 [Compound 28, 1-ethyl-3-[5-[2-(1-hydroxy-1-methyl-ethyl)pyrimidin-5-yl]-7-[4-(morpholinomethyl)-2-pyridyl]-1,3-benzothiazol-2-yl]urea]
S. pyogenes (ATCC 51339)
  MIC: ≤ 1 µg/mL
S. aureus (ATCC 29213)
  MIC: ≤ 1 µg/mL
[1]; [2]
  MIC: ≤ 2 µg/mL

## CCNC(=O)Nc1nc2cc(-c3cnc(C(C)(C)O)nc3)cc(-c3cc(OCCOC)ccn3)c2s1 [Compound 80, 1-ethyl-3-[5-[2-(1-hydroxy-1-methyl-ethyl)pyrimidin-5-yl]-7-[4-(2-methoxyethoxy)-2-pyridyl]-1,3-benzothiazol-2-yl]urea]
S. pyogenes (ATCC 51339)
  MIC: ≤ 1 µg/mL
S. aureus (ATCC 29213)
  MIC: ≤ 1 µg/mL
[1]; [2]
  MIC: ≤ 2 µg/mL

## CC(=O)NC[C@H]1CN(c2ccc(N3CCOCC3)c(F)c2)C(=O)O1 [Linezolid, reference compound]
S. pneumoniae ATCC6301; 10 mg/kg
  survival outcome: dead by day six

## CCNC(=O)Nc1nc2cc(-c3cnc(C(O)C4CC4)nc3)cc(-c3ccccn3)c2s1 (centres unmarked) [Compound 58, 1-[5-[2-[cyclopropyl(hydroxy)methyl]pyrimidin-5-yl]-7-(2-pyridyl)-1,3-benzothiazol-2-yl]-3-ethyl-urea]
S. pyogenes (ATCC 51339)
  MIC: ≤ 1 µg/mL
S. aureus (ATCC 29213)
  MIC: ≤ 1 µg/mL
[1]; [2]
  MIC: ≤ 2 µg/mL
